The target of one series is PC5/6. Nature of the series: Ki, μM | PC5/6.
A further series has as its target PC7. Nature of the series: Ki, μM | PC7.
The next series has as its target PACE4. Nature of the series: Ki, μM | PACE4.
In a further series the target is PC4. Nature of the series: Ki, μM | PC4.
The test system of series [1] is Pseudomonas exotoxin A (PEx). Put plainly: Lethal action of Pseudomonas exotoxin A in mice. The class given is in vivo, C57/BL6 mice. The protocol: A similar set of experiments was carried out with an unrelated toxin, Pseudomonas exotoxin A. Consistent with the earlier data (Chiron, M. F., et al. 1997), Pseudomonas exotoxin A (PEx) was resistant to PC cleavage at pH 7.5 but following unfolding at pH 5.5 PEx (66 kDa) was readily processed by furin, PC4 and PC5/6 to produce the 28 kDa N-terminal fragment and the toxic 37 kDa Cterminal fragment (FIG. 3A). C57/BL6 mice (5 mice/group) received one intramuscular injection of PEx (500 ng/animal; 2xLD50; Fogle, M. R., et al. 2002) and one injection of the […] (SEQ ID NO:212) peptide (12.5 mg/kg i.p.) either 24 h prior to toxin injection or simultaneously with toxin. Another group of mice, after receiving one injection of the peptide 24 h prior to toxin injection, continued to receive daily injections of the peptide for the remainder of the experiment.
C57/BL6 mice (5 mice/group) received one intramuscular injection of PEx (500 ng/animal; 2xLD50; Fogle, M. R., et al. 2002). Mice received one injection of the […] (SEQ ID NO:212) peptide (12.5 mg/kg i.p.) either 24 h prior to toxin injection or simultaneously with toxin. Additional group of mice after receiving one injection of the peptide 24 h prior to toxin injection continued to receive daily injections of the peptide for the remainder of the experiment (FIG. 3B).

Series [2] deals with B. anthracis Sterne spores. Also noted: species or system A/J mice. Particulars: mouse, in vivo.
Another series addresses T1, furin (Homo sapiens, UniProt P09958).
T1 construct: made in house; host or cells: Drosophila S2 cells (Invitrogen expression system)
Nature of the series: biochemical. Particulars: furin, Pyr-RTKR-AMC substrate; optimization of the inhibitory peptides (Table 3); read-out: Ki.

Non-standard residues stand in square brackets, D forms with d. Residues, ends and D or L forms follow the SMILES beside them. No end group written: not given here. βAla = NCCC(=O)O

T1 sequence (P09958 108-794 limits assumed): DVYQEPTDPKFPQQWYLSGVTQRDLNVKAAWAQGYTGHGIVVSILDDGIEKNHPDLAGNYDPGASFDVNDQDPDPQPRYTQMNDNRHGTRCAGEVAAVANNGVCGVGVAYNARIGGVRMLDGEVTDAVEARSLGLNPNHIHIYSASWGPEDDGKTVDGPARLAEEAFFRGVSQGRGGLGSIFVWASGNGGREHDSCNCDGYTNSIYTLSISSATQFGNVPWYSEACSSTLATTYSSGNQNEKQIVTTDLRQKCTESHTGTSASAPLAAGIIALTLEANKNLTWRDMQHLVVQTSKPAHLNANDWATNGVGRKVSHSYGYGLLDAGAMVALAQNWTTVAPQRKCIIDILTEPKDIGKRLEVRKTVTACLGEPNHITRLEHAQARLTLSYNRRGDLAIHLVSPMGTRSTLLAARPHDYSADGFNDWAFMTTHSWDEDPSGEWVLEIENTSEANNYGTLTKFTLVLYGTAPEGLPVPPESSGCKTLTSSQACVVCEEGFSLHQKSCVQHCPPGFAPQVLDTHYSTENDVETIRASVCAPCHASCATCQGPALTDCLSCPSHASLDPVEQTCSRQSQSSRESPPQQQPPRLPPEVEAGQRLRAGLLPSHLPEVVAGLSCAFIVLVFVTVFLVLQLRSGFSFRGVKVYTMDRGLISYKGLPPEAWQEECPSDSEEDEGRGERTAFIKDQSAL

In the case of `C[C@H](NC(=O)[C@H](CCCNC(=N)N)NC(=O)[C@@H]1CCCN1C(=O)[C@@H](N)[C@@H](C)O)C(=O)N[C@@H](CCCNC(=N)N)C(=O)N[C@@H](CCCNC(=N)N)C(=O)N[C@@H](CCCNC(=N)N)C(=O)N[C@@H](CCCCN)C(=O)N[C@@H](CCCCN)C(=O)N[C@@H](CCCNC(=N)N)C(=O)N[C@H](C(N)=O)[C@@H](C)O` (H-TPRARRRKKRT-NH2) [listing 1 of 2 here], the Ki is 0.232 µM at PC5/6, 0.152 µM on PC7, 0.162 µM at PACE4 and 0.441 µM at PC4.
As for `C[C@H](NC(=O)[C@H](CCCNC(=N)N)NC(=O)[C@@H]1CCCN1C(=O)[C@@H](N)[C@@H](C)O)C(=O)N[C@@H](CCCNC(=N)N)C(=O)N[C@@H](CCCNC(=N)N)C(=O)N[C@@H](CCCNC(=N)N)C(=O)N[C@@H](CCCCN)C(=O)N[C@@H](CCCCN)C(=O)N[C@@H](CCCNC(=N)N)C(=O)N[C@H](C(N)=O)[C@@H](C)O` (H-TPRARRRKKRT-NH2) [listing 2 of 2 here], the “protection from LF-induced cytotoxicity” value in the series on RAW 264.7 cells is on record as “protected cells from LF-induced cytotoxicity”. This compound also registered a survival in series [1] (C57/BL6 mice, PEx 500 ng/animal (2xLD50), peptide 12.5 mg/kg i.p. 24 h prior to toxin then daily injections) of 60%. Besides, in series [1] (peptide 12.5 mg/kg i.p. (FIG. 3)), the “protection of mice from the toxic effect of PEx” value is “protects mice from the toxic effect of Pseudomonas PEx”. The “infected mice protected from disease” value in series [2] stood at 40%.
On to `O=C(O)c1cn(C2CC2)c2cc(N3CCNCC3)c(F)cc2c1=O` [Cipro, reference compound], for which, in series [2], the “infected mice protected from disease” value came to 40% and the “protection of A/J mice from anthrax” value was “protect A/J mice from anthrax”.
`C[C@@H](O)[C@H](N)C(=O)N1CCC[C@H]1C(=O)N[C@@H](CCC(N)=O)C(=O)N[C@@H](CCCNC(=N)N)C(=O)N[C@H](CCC(=O)O)C(=O)N[C@@H](CCCNC(=N)N)C(=O)N[C@@H](CCCNC(=N)N)C(=O)N[C@@H](CCCNC(=N)N)C(=O)N[C@@H](CCCCN)C(=O)N[C@@H](CCCCN)C(=O)N[C@@H](CCCNC(=N)N)C(=O)NCC(N)=O` [TPQReRRRKKRG]: at furin, the inhibitory constant (Ki) was more than 100 nM.
The same measure, in the same setting: the same measure for `C[C@@H](O)[C@H](N)C(=O)N1CCC[C@H]1C(=O)N[C@@H](CCC(N)=O)C(=O)N[C@@H](CCCNC(=N)N)C(=O)N[C@H](CCCCN)C(=O)N[C@@H](CCCNC(=N)N)C(=O)N[C@@H](CCCNC(=N)N)C(=O)N[C@@H](CCCNC(=N)N)C(=O)N[C@@H](CCCCN)C(=O)N[C@@H](CCCCN)C(=O)N[C@@H](CCCNC(=N)N)C(=O)NCC(N)=O` [TPQRkRRRKKRG]: more than 100 nM; for `C[C@@H](O)[C@H](N)C(=O)N1CCC[C@H]1C(=O)N[C@@H](CCC(N)=O)C(=O)N[C@@H](CCCNC(=N)N)C(=O)N[C@H](CCCNC(=N)N)C(=O)N[C@@H](CCCNC(=N)N)C(=O)N[C@@H](CCCNC(=N)N)C(=O)N[C@@H](CCCNC(=N)N)C(=O)N[C@@H](CCCCN)C(=O)N[C@@H](CCCCN)C(=O)N[C@@H](CCCNC(=N)N)C(=O)NCC(N)=O` [TPQRrRRRKKRG]: more than 100 nM.
Consider TPQRARRRKKRF, for which the Ki came to 0.806 µM at PC5/6, 1.13 µM on PC7, 0.602 µM on PACE4 and 0.772 µM on PC4.
On to TPQRARRRKKRT, for which the Ki at PC5/6 was 0.188 µM; at PC7, 0.206 µM; at PC4, 0.515 µM.
Regarding TPQRARRRKKRW, the Ki on PC5/6 came out at 0.433 µM; on PC7, 0.172 µM; on PACE4, 0.192 µM; at PC4, 0.952 µM.
In the case of TPQRARRRKKRY, the Ki at PC5/6 was 0.649 µM; on PC7, 1.22 µM; at PACE4, 1.02 µM; at PC4, 0.624 µM.
As for TPRARRRKKRI, the Ki on PC5/6 was 0.492 µM; at PC7, 0.135 µM; on PACE4, 0.026 µM; at PC4, 0.562 µM.
With “β-Ala-TPRARRRKKRT-amide ([βAla]TPRARRRKKRT-NH2; N-terminus assumed; SMILES C[C@H](NC(=O)[C@H](CCCNC(=N)N)NC(=O)[C@@H]1CCCN1C(=O)[C@@H](NC(=O)CCN)[C@@H](C)O)C(=O)N[C@@H](CCCNC(=N)N)C(=O)N[C@@H](CCCNC(=N)N)C(=O)N[C@@H](CCCNC(=N)N)C(=O)N[C@@H](CCCCN)C(=O)N[C@@H](CCCCN)C(=O)N[C@@H](CCCNC(=N)N)C(=O)N[C@H](C(N)=O)[C@@H](C)O)”, the “protection of A/J mice from anthrax” value in series [2] is given as “protect A/J mice from anthrax”.

For orientation: Ki means the dissociation constant of the complex between target and ligand, obtained from inhibition or displacement.

Source of the values: patent US8053553B2, “Targeting host proteinases as a therapeutic strategy against viral and bacterial pathogens” (Socpra Sciences Sante Et Humaines, priority 2007, dated 2011).
